Assay results reported in ChEMBL document CHEMBL3875160, “Structure-activity relationship study of peptidomimetic aldehydes as enterovirus 71 3C protease inhibitors” (Eur J Med Chem, 2016).

How the values were obtained:
[1] = Inhibition of EV71 protease 3C expressed in Escherichia coli BL21 using substrate NMA-IEALFQGPPK(DNP)FR preincubated for 30 mins followed by substrate addition measured after 2 hrs; set-up: species or system Enterovirus A71
[2] = Cytotoxicity against human rhabdomyosarcoma cells assessed as decrease in cell viability after 24 hrs by WST-1 assay; assay type: toxicity, cell-based
Enterovirus A71 = experiment: Antiviral activity against EV71 FY pseudotype virus infected in human rhabdomyosarcoma cells after 24 hrs by bright-glo luciferase reporter gene assay; assay type: functional; conditions: Enterovirus A

SMILES | IC50 [1] [nM] | EC50 (Enterovirus A71) [nM] | Ki [1] [nM] | CC50 at 24 h [2] [nM]
O=C[C@H](C[C@@H]1CCCNC1=O)NC(=O)[C@H](Cc1ccccc1)NC(=O)/C=C/c1ccccc1 | 540 | – | 370 | > 100000
Cc1cc(C(=O)N[C@@H](Cc2ccc(F)cc2)C(=O)N[C@H](C=O)C[C@@H]2CCCNC2=O)no1 | 100 | – | 70 | > 100000
O=C[C@H](C[C@@H]1CCCNC1=O)NC(=O)[C@H](Cc1ccc(F)cc1)NC(=O)/C=C/c1ccccc1 | 440 | 200 | 300 | > 100000
O=C[C@H](C[C@@H]1CCCNC1=O)NC(=O)[C@H](Cc1ccccc1)NC(=O)c1ccco1 | 1100 | 850 | 750 | > 100000
O=C[C@H](C[C@@H]1CCCNC1=O)NC(=O)[C@H](Cc1ccccc1)NC(=O)c1ccc(-c2ccccc2)cc1 | 1930 | 910 | 1320 | > 100000
CC(C)[C@H](NC(=O)/C=C/c1ccccc1)C(=O)N[C@H](C=O)C[C@@H]1CCCNC1=O | 5680 | 16700 | 3880 | > 100000
O=C[C@H](C[C@@H]1CCCNC1=O)NC(=O)[C@H](Cc1ccccc1)NC(=O)c1ccncc1 | 1420 | 8600 | 970 | > 100000
COc1ccc(/C=C/C(=O)N[C@@H](Cc2ccccc2)C(=O)N[C@H](C=O)C[C@@H]2CCCNC2=O)cc1OC | 1580 | 1380 | 1080 | > 100000
COc1ccc(/C=C/C(=O)N[C@@H](Cc2ccc(F)cc2)C(=O)N[C@H](C=O)C[C@@H]2CCCNC2=O)cc1 | 410 | 180 | 280 | > 100000
O=C[C@H](C[C@@H]1CCCNC1=O)NC(=O)[C@H](Cc1ccccc1)NC(=O)c1cccs1 | 420 | 210 | 290 | > 100000
CC(C)C[C@H](NC(=O)/C=C/c1ccccc1)C(=O)N[C@H](C=O)C[C@@H]1CCCNC1=O | 2780 | 2360 | 1900 | > 100000
Cc1cc(C(=O)N[C@@H](Cc2ccccc2)C(=O)N[C@H](C=O)C[C@@H]2CCCNC2=O)no1 | 220 | 180 | 220 | > 100000
O=C[C@H](C[C@@H]1CCCNC1=O)NC(=O)[C@H](Cc1ccccc1)NC(=O)c1ccccc1 | 550 | 380 | 380 | > 100000

More lines, in order of falling IC50 [1], values ahead:

IC50 [1] [nM] | EC50 (Enterovirus A71) [nM] | SMILES | Ki [1] [nM] | CC50 at 24 h [2] [nM]
13600 | 6450 | CCCCCC(=O)N[C@@H](Cc1ccccc1)C(=O)N[C@H](C=O)C[C@@H]1CCCNC1=O | 9270 | > 100000
7680 | 4060 | CCCC(=O)N[C@@H](Cc1ccccc1)C(=O)N[C@H](C=O)C[C@@H]1CCCNC1=O | 5250 | > 100000
7270 | 6100 | COc1cc(/C=C/C(=O)N[C@@H](Cc2ccccc2)C(=O)N[C@H](C=O)C[C@@H]2CCCNC2=O)cc(OC)c1OC | 4970 | > 100000
1190 | 1040 | O=C[C@H](C[C@@H]1CCCNC1=O)NC(=O)[C@H](CC1CCCCC1)NC(=O)/C=C/c1ccccc1 | 810 | > 100000
750 | 570 | O=C[C@H](C[C@@H]1CCCNC1=O)NC(=O)[C@H](Cc1ccccc1)NC(=O)CCc1ccccc1 | 510 | > 100000
700 | 540 | O=C[C@H](C[C@@H]1CCCNC1=O)NC(=O)[C@H](Cc1ccccc1)NC(=O)Cc1ccccc1 | 480 | > 100000
590 | 320 | O=C[C@H](C[C@@H]1CCCNC1=O)NC(=O)[C@H](Cc1ccccc1)NC(=O)/C=C/c1ccc(F)cc1 | 400 | > 100000
490 | 230 | COc1ccc(/C=C/C(=O)N[C@@H](Cc2ccccc2)C(=O)N[C@H](C=O)C[C@@H]2CCCNC2=O)cc1 | 330 | > 100000
470 | 260 | O=C[C@H](C[C@@H]1CCCNC1=O)NC(=O)[C@H](Cc1ccc(F)cc1)NC(=O)/C=C/c1ccc(F)cc1 | 320 | > 100000
440 | 3550 | O=C[C@H](C[C@@H]1CCCNC1=O)NC(=O)[C@H](Cc1ccccc1)NC(=O)c1cccnc1 | 300 | > 100000
290 | 160 | O=C[C@H](C[C@@H]1CCCNC1=O)NC(=O)[C@H](Cc1ccc(F)cc1)NC(=O)c1cccs1 | 200 | > 100000
